Patent US7691858B2, “Kinase inhibitors and methods of use thereof” (TargeGen, Inc., priority 2006, dated 2010)

What was measured:
Akt phosphorylation = experiment: VEGF-induced Akt phosphorylation in vivo (lung lysates, Western blot); set-up: species or system Sprague Dawley rats; settings: 0.5 and 5 mg/kg iv, VEGF 30, 60 or 120 min later
Experimental: FIG. 5. Inhibition of VEGF-induced Akt phosphorylation in vivo. […] Lungs were explanted 5 min after VEGF or saline injection, processed to tissue lysates, and lysates probed in Western blots to detect either phosphorylated Akt or total Akt (as a loading control).
The ability of compounds to impact PI3K activity in vivo was assessed by examining compound influence on vascular endothelial growth factor (VEGF)-induced Akt kinase phosphorylation (VEGF stimulation being an inducer of PI3K activity, and Akt kinase being a direct target of PI3K). Sprague Dawley rats were first injected intravenously (iv) with either vehicle or test compound at 5 mg/kg, and then 30, 60 or 120 min later injected iv with VEGF. Five minutes later, lungs were harvested and used to generate tissue lysates, which were then probed for phosphorylated Akt using Western blot technology; non-phosphorylated Akt was also probed in the same blots as a loading control. In other studies, test compounds was dosed at either 0.5 or 5 mg/kg, and VEGF delivered 60 min later, in order to assess the dose-response relationship of a compound's activities. […]

myocardial infarct = experiment: Rodent model of acute myocardial infarct (LAD occlusion/reperfusion); type: in vivo, Sprague-Dawley rats
Experimental: A rodent model of acute myocardial infarct, in which the proximal left anterior descending coronary artery (LAD) is occluded for 60 min followed by reperfusion, was used to determine whether test agents reduced infarct size at 24 hours.
Myocardial infarcts were created in Sprague-Dawley rats (200-300 g body weight) by a 60 min occlusion of the LAD followed by LAD reperfusion. […] At 24 hr post-treatment, the ischemic zone (area at-risk, AAR) was delineated by re-ligation of the LAD followed by IV injection of alkali blue dye, after which hearts were sectioned along the short axis and stained using triphenyltetrazolium chloride to delineate viable from infarcted myocardium. Photographic images were then analyzed using morphometric software to calculate infarct area as a percent of the at-risk area.
Rodent MI model: All animal studies followed current “NIH Guidelines for the Use of Laboratory Animals” and were performed according to IACUC-approved protocols. Sprague-Dawley rats (275-300 g) were anesthetized using inhaled isoflurane after which chest walls were shaved and swabbed with iodine. Animals were then intubated and maintained on 2% isoflurane (delivered in 30% O2/70% N2), with optimal respiratory rate and stroke volumes set by a volume-controlled safety ventilator (Inspira Advanced Safety Ventilator; Harvard Apparatus, Holliston, Mass.). Body temperatures were maintained at 35-37° C. using heating pads and five-lead electrocardiograms established. For each animal, a left thoracotomy was performed at the third intercostal space, the heart was exposed and a suture snare tightened around the LAD at the point it appeared from beneath the left atrium. Ischemia was confirmed from blanching of the left ventricle (LV) as well as changes in ECG patterns. After the desired period of occlusion (60 min in the standard model), the suture snare was loosened to allow complete reperfusion (but retained in place using shallow sutures) and the chest closed in layers. […].
For infarct size determination, LAD occlusion was repeated on each animal 24 hr after the initial occlusion. The ischemic zone (area-at-risk or AAR) was then delineated by i.v. injection of Evans blue dye (5 ml of a 10% saline solution containing 100 U/ml sodium heparin). The heart was explanted, atria and right ventricle trimmed free, and the LV (septal and free walls) frozen at −20° C. to induce rigor. After thawing on ice, the LV was subdivided into six 2 mm thick sections along the short axis using a metal form to guide dissection. Heart sections were stained for 20 min in 37° C. triphenyltetrazolium chloride (TTC, 2% in 0.04 M K2HPO4/0.17 M sucrose) to delineate viable from infarcted myocardium, fixed for 20 min in 10% formalin, then rinsed in saline. For each section, photographs were taken of both anterior and posterior surfaces and these images analyzed (by personnel blinded as to treatment identity) using a morphometric software package (Image Pro Plus; Media Cybernetics, Silver Spring, Md.). The following areas were calculated, based on their differing pixel densities: non-ischemic zone (Evans blue-stained), viable-but-ischemic zone (free of Evans blue but TTC-stained), and infarct-within-ischemic zone (free of both Evans blue and TTC stain). Area values for anterior and posterior views were averaged, and these values used to calculate the following AAR=Viable-but-ischemic Area+Infarct Area Equation 1 Total LV Area=AAR+Non-ischemic Area Equation 2

EphA4 = target: T1, EphA4 (Homo sapiens, UniProt P54764); experiment: Kinase panel screen; type: biochemical; settings: Compound I and ATP 10 μM
T1 construct: purchased Upstate USA or Invitrogen (commercial screening service)
T1 sequence (P54764 20-986): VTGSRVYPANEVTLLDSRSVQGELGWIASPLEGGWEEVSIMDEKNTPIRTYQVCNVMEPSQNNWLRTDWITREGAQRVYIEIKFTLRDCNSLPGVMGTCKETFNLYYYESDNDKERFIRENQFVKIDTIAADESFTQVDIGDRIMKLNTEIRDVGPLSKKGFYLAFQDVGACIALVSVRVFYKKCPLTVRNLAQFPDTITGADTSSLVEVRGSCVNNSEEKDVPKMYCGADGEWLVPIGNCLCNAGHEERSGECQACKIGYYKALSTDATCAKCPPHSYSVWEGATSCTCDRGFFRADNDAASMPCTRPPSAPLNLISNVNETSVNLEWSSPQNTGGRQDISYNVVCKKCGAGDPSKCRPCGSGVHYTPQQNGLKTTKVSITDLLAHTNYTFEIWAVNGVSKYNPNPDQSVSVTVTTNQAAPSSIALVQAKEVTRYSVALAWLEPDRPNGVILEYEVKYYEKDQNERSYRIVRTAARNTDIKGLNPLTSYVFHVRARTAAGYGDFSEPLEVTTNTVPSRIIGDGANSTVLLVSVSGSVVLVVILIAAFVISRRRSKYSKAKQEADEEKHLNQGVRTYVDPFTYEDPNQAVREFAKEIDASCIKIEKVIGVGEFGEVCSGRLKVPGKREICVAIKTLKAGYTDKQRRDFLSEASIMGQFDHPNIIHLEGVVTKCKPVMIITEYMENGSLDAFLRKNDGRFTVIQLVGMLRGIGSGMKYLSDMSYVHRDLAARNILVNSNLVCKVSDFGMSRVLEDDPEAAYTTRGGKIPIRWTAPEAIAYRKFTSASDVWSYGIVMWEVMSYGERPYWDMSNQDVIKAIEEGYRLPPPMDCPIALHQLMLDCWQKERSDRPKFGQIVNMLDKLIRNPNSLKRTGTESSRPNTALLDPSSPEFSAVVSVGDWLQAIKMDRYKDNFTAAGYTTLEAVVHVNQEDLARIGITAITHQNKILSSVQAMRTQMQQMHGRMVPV

MAPKAP-K3 = target: T2, MAPKAP-K3 (Homo sapiens, UniProt Q16644); experiment: Kinase panel screen; type: biochemical; settings: Compound I and ATP 10 μM
T2 construct: purchased Upstate USA or Invitrogen (commercial screening service)

FGFR1 = target: T3, FGFR1 (Homo sapiens, UniProt P11362); experiment: Kinase panel screen; type: biochemical; settings: Compound I and ATP 10 μM
T3 construct: purchased Upstate USA or Invitrogen (contract screening service)

Ret = target: T4, Ret (Homo sapiens, UniProt P07949); experiment: Kinase panel screen; type: biochemical; settings: Compound I and ATP 10 μM
T4 construct: purchased Upstate USA or Invitrogen (contract screening service)
T4 sequence (P07949 29-1114): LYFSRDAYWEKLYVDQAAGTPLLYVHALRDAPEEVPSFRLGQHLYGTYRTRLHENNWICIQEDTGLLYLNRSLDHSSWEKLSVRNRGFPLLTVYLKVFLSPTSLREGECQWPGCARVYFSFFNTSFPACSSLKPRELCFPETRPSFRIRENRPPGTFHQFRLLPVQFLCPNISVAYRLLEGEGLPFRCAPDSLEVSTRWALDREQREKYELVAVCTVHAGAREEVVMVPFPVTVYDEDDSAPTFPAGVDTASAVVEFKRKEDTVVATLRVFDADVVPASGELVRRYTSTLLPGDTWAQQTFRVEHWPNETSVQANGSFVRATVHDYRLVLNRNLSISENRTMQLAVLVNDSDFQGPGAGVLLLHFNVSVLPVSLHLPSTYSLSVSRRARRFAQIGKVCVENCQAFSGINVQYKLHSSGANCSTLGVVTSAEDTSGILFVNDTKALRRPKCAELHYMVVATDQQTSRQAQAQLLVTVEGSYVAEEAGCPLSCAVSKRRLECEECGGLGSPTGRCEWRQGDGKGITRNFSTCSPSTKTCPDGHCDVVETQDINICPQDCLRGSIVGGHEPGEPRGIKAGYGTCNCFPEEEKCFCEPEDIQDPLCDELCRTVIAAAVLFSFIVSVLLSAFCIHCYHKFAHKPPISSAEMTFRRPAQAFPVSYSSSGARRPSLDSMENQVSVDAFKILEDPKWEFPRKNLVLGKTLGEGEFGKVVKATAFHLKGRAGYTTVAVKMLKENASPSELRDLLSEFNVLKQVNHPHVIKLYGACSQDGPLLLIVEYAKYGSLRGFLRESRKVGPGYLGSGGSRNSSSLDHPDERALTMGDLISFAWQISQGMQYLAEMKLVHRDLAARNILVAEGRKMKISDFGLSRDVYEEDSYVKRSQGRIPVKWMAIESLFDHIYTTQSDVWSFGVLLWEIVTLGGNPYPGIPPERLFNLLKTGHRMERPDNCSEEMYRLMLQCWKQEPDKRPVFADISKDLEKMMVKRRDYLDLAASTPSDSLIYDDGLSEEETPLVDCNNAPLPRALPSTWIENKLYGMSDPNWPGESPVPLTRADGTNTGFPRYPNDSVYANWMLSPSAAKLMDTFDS

Flt3 = target: T5, Flt3 (Homo sapiens, UniProt P36888); experiment: Kinase panel screen; type: biochemical; settings: Compound I and ATP 10 μM
T5 construct: purchased Upstate USA or Invitrogen (commercial screening service)

PDK1 = target: T6, PDK1 (Homo sapiens, UniProt O15530); experiment: Kinase panel screen; type: biochemical; settings: Compound I and ATP 10 μM
T6 construct: purchased Upstate USA or Invitrogen (commercial screening service)
T6 sequence (O15530 whole entry): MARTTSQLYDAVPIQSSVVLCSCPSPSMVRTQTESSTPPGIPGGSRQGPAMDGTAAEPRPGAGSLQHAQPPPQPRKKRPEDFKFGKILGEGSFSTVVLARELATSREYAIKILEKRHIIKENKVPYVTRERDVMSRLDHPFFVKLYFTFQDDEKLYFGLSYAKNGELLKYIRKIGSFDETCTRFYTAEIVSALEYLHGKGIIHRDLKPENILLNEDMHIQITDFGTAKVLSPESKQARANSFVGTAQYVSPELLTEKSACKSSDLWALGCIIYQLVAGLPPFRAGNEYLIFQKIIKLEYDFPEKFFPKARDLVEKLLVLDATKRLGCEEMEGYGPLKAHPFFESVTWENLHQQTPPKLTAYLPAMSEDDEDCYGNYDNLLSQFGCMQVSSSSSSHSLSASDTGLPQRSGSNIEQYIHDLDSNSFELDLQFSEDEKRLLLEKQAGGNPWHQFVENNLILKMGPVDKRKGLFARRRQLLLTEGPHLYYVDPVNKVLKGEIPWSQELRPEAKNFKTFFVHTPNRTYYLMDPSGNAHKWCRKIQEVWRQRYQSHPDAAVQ

KDR = target: T7, KDR (Homo sapiens, UniProt P35968); experiment: Kinase panel screen; type: biochemical; settings: Compound I and ATP 10 μM
T7 construct: purchased Upstate USA or Invitrogen (contract screening service)
T7 sequence (P35968 20-1356): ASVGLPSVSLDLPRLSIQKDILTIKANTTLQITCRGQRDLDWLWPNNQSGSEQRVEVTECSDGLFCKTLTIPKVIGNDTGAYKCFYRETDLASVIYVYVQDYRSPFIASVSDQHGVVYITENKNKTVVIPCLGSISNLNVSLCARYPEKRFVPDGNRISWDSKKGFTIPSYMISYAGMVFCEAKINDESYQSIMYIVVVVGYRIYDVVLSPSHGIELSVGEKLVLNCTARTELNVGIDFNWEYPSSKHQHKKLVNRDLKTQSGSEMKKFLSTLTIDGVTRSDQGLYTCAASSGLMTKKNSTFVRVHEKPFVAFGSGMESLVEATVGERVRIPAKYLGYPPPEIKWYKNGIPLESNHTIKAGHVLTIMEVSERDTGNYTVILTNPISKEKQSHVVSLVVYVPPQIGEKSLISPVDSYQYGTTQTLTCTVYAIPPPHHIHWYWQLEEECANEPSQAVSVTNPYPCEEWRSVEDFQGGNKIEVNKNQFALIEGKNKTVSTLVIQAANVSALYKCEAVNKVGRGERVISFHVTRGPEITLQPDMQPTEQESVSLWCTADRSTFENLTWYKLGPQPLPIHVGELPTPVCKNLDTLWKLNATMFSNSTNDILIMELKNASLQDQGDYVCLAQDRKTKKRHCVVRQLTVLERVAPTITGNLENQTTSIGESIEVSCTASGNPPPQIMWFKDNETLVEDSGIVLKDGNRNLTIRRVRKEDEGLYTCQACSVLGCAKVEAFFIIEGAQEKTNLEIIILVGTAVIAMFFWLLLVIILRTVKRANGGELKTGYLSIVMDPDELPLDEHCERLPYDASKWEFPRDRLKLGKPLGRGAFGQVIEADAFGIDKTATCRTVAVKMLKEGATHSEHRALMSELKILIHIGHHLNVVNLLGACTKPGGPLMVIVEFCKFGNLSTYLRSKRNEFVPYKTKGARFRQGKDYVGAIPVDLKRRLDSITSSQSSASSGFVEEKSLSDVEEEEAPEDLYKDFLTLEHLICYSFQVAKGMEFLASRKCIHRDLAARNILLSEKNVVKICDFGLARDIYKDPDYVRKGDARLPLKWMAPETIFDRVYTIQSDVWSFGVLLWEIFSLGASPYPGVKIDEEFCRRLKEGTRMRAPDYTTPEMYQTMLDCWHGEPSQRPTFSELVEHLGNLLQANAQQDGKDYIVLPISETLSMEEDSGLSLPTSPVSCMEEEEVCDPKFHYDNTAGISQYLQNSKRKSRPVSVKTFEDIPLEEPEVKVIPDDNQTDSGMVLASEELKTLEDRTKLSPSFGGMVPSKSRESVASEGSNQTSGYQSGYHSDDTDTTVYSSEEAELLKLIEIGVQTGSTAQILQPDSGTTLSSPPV

PKCpi = target: T8, PKCpi (Homo sapiens, UniProt P05771); experiment: Kinase panel screen; type: biochemical; settings: Compound I and ATP 10 μM
T8 construct: purchased Upstate USA or Invitrogen (commercial screening service)
T8 sequence (P05771 whole entry): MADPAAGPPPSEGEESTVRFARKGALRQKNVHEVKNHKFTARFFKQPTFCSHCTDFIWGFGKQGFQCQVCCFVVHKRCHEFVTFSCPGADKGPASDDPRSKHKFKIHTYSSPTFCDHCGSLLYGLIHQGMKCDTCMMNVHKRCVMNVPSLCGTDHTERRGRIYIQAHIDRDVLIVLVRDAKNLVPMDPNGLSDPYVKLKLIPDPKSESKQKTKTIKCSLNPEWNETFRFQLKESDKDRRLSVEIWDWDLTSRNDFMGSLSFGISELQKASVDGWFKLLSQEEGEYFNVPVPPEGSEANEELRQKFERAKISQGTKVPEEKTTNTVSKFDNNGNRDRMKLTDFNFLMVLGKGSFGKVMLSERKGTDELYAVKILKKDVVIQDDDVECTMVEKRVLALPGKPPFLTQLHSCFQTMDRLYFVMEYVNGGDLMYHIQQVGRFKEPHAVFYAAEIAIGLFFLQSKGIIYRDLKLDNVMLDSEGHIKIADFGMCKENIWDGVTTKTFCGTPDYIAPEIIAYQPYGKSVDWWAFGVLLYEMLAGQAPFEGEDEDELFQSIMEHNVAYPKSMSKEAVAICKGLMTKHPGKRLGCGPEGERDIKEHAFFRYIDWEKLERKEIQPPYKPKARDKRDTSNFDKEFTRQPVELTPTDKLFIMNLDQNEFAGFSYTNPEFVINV

CSK = target: T9, CSK (Homo sapiens, UniProt P41240); experiment: Kinase panel screen; type: biochemical; settings: Compound I and ATP 10 μM
T9 construct: purchased Upstate USA or Invitrogen (commercial screening service)
T9 sequence (P41240 whole entry): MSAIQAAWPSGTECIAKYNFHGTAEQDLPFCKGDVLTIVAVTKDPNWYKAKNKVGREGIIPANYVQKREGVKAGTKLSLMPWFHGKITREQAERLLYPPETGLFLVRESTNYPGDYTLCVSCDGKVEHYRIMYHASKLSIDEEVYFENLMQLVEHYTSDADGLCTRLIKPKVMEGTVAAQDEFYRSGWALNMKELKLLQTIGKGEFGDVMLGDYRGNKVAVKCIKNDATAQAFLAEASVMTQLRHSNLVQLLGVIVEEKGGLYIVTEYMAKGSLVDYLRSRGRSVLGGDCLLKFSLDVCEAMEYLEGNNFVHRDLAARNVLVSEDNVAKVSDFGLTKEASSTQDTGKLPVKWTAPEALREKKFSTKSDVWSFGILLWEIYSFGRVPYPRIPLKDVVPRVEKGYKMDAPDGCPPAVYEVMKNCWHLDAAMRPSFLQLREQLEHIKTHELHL

## Nc1nc(N)c2nc(-c3cccc(O)c3)c(-c3cccc(O)c3)nc2n1 [Compound I, 6,7-bis-(3-hydroxyphenyl)-pteridine-2,4-diamine]
Akt phosphorylation
  VEGF-induced Akt phosphorylation in lung lysates: blocked
Akt phosphorylation; listed as 6,7-bis-(3-hydroxyphenyl)-pteridine-2,4-diamine
  VEGF-induced Akt phosphorylation in lung lysates: Inhibition
Myocardial infarct; 0.1 mg/kg, delivery between 0 and 3 h post-reperfusion (FIG. 6b)
  reductions in infarct development vs. vehicle-treated controls: 58-67%
Myocardial infarct; rats, 0.3 mg/kg IV bolus 60 min into reperfusion, 24 hr, N=8
  reduction in infarct size vs. vehicle controls: 43%
Myocardial infarct; rats, 0.3 mg/kg IV bolus 60 min into reperfusion, mean±SD (±9), vehicle 62%±7
  infarct area as percentage of ischemic territory: 35%
Myocardial infarct; single 0.5 mg/kg bolus one hour post-reperfusion, 4 weeks
  improvement in fractional shortening: 24%
Myocardial infarct; single 0.5 mg/kg bolus one hour post-reperfusion, echocardiography 4 weeks, mean±SEM, vehicle 27.2±1.9
  percent left ventricular long axis fractional shortening: 33.6±2.0%
Myocardial infarct; single i.v. bolus 60 mm post-reperfusion
  reduction of infarct size: ≥ 40%
EphA4
  Percent Control, EphA4: 119%
MAPKAP-K3
  Percent Control, MAPKAP-K3: 93%
FGFR1
  Percent Control, FGFR1: 75%
Ret
  Percent Control, Ret: 57%
Flt3
  Percent Control, Flt3: 80%
PDK1
  Percent Control, PDK1: 90%
KDR
  Percent Control, KDR: 62%
PKCpi
  Percent Control, PKCpi: 90%
CSK
  Percent Control, CSK: 114%
